Data: US12049450B2, “Pyridyloxy-carboxylate derivative and preparation method therefor, herbicidal composition, and use” (Qingdao Kingagroot Chemical Compound Co., Ltd., priority 2018, dated 2024)

Columns and labels:
Type in all cases: in vivo
[1] = tested on: Abutilon theophrasti; test: Post-emergence test experiment (greenhouse pot, spray at 2-3 leaf stage); conditions: 1000 g/ha; post-emergence spray at 2-3 leaf stage; assessed after 3 weeks; fresh weight inhibition rate
Summary of the method: (§1)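 Activity graded levels 0-5 by fresh-weight inhibition (level 5 above 85%, level 0 below 5%), assessed 3 weeks after treatment. Plants grown in greenhouse pots were sprayed post-emergence at 2-3 leaves using acetone/tween-80 solutions with methyl oleate synergist (1.5 L/ha).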

[2] = tested on: Cyperus iria; test: as above; conditions: post-emergence, 600 g/ha, after 3 weeks; from Hunan, resistant to ALS inhibitor herbicides
Summary of the method: as §1

[3] = tested on: Digitaria sanguinalis; test: as above; conditions: 1000 g/ha; post-emergence spray at 2-3 leaf stage; assessed after 3 weeks; fresh weight inhibition rate
Summary of the method: as §1

[4] = tested on: Echinochloa crusgalli; test: as above; conditions: for Activity level (growth inhibition rate) Echinochloa crusgalli: 1000 g/ha, post-emergence spray at 2-3 leaf stage, assessed after 3 weeks, fresh weight inhibition rate; for Echinochloa crusgalli, activity level (growth inhibition rate): post-emergence, 600 g/ha, after 3 weeks, from Hunan, resistant to ALS inhibitor herbicides
Summary of the method: as §1

[5] = tested on: Galium spurium; test: as above; conditions: 1000 g/ha; post-emergence spray at 2-3 leaf stage; assessed after 3 weeks; fresh weight inhibition rate
Summary of the method: as §1

[6] = tested on: Indica rice; test: as above; conditions: post-emergence, 600 g/ha, after 3 weeks
Summary of the method: as §1

[7] = tested on: Japonica rice; test: as above; conditions: post-emergence, 600 g/ha, after 3 weeks
Summary of the method: as §1

[8] = tested on: Monochoria vaginalis; test: as above; conditions: 1000 g/ha; post-emergence spray at 2-3 leaf stage; assessed after 3 weeks; fresh weight inhibition rate
Summary of the method: as §1

[9] = tested on: rice (japonica rice); test: Transplanted rice safety evaluation in rice field soil pot; conditions: 1000 g/ha, 21 days after treatment
Source text: (§2) The activity level standard of harmful plants destruction (i. e. growth inhibition rate) is as follows: • Level 5: the growth inhibition rate is greater than 85%; • Level 4: the growth inhibition rate is equal to or greater than 60% and less than 85%; • Level 3: the growth inhibition rate is equal to or greater than 40% and less than 60%; • Level 2: the growth inhibition rate is equal to or greater than 20% and less than 40%; • Level 1: the growth inhibition rate is equal to or greater than 5% and less than 20%; • Level 0: the growth inhibition rate is less than 5%;
(§3) Transplanted rice safety evaluation and weed control effect evaluation in rice field:
In addition, the rice field soil that loaded into the 1/1,000,000 ha pot was leveled to keep water storage at 3-4 cm depth. The 3-leaf stage rice (japonica rice) was transplanted at 3 cm of transplanting depth the next day. The compound of the present invention was treated by the same way after 5 days of transplantation.
(§4) The fertility condition of Monochoria vaginalis 14 days and rice 21 days after the treatment of the compound of the invention with the naked eye.

[10] = tested on: Monochoria vaginalis; test: Weed control effect evaluation in rice field soil pot; conditions: paddy pot, 1000 g/ha, 14 days after treatment; resistant to pyrazosulfuron-ethyl and penoxsulam
Source text: as §2, §3
Rice field soil was loaded into a 1/1,000,000 ha pot. The seeds of Monochoria vaginalis were sowed and gently covered with soil, then left to stand still in greenhouse in the state of 0.5-1 cm of water storage. It was kept at 3-4 cm of water storage thereafter. The weeds were treated by dripping the WP or SC water diluents prepared according to the common preparation method of the compounds of the present invention with pipette homogeneously to achieve specified effective amount when Monochoria vaginalis reached 0.5 leaf stage.
as §4

Row | Structure (SMILES) | Activity level (growth inhibition rate) Abutilon theophrasti [1] | Cyperus iria, activity level (growth inhibition rate) [2] | Activity level (growth inhibition rate) Digitaria sanguinalis [3] | Activity level (growth inhibition rate) Echinochloa crusgalli [4] | Echinochloa crusgalli, activity level (growth inhibition rate) [4] | Activity level (growth inhibition rate) Galium spurium [5] | Indica rice, activity level (growth inhibition rate) [6] | Japonica rice, activity level (growth inhibition rate) [7] | Activity level (growth inhibition rate) Monochoria Vaginalis [8] | Rice, safety level [9] | Monochoria Vaginalis, activity level [10]
1 | CC(Oc1nc(F)c(Cl)c(N)c1Cl)C(=O)OCc1ccccc1F (centres unmarked) [Compound 75] | 5 (Level 5: the growth inhibition rate is greater than 85%) | 5 (Level 5: the growth inhibition rate is greater than 85%) | 5 (Level 5: the growth inhibition rate is greater than 85%) | 5 (Level 5: the growth inhibition rate is greater than 85%) | 5 (Level 5: the growth inhibition rate is greater than 85%) | 5 (Level 5: the growth inhibition rate is greater than 85%) | 0 (Level 0: the growth inhibition rate is less than 5%) | 0 (Level 0: the growth inhibition rate is less than 5%) | 5 (Level 5: the growth inhibition rate is greater than 85%) | 0 (Level 0: the growth inhibition rate is less than 5%) | 5 (Level 5: the growth inhibition rate is greater than 85%)
2 | CC(Oc1nc(F)c(Cl)c(N)c1Cl)C(=O)SCc1cccc(Cl)c1 (centres unmarked) [Compound 76] | 5 (Level 5: the growth inhibition rate is greater than 85%) | 5 (Level 5: the growth inhibition rate is greater than 85%) | 5 (Level 5: the growth inhibition rate is greater than 85%) | 5 (Level 5: the growth inhibition rate is greater than 85%) | 5 (Level 5: the growth inhibition rate is greater than 85%) | 5 (Level 5: the growth inhibition rate is greater than 85%) | 0 (Level 0: the growth inhibition rate is less than 5%) | 0 (Level 0: the growth inhibition rate is less than 5%) | 5 (Level 5: the growth inhibition rate is greater than 85%) | 0 (Level 0: the growth inhibition rate is less than 5%) | 5 (Level 5: the growth inhibition rate is greater than 85%)
3 | Cc1c(OC(C)C(=O)OCc2ccccc2)nc(F)c(Cl)c1N (centres unmarked) [Compound 20] | 5 (Level 5: the growth inhibition rate is greater than 85%) | 5 (Level 5: the growth inhibition rate is greater than 85%) | 5 (Level 5: the growth inhibition rate is greater than 85%) | 5 (Level 5: the growth inhibition rate is greater than 85%) | 5 (Level 5: the growth inhibition rate is greater than 85%) | 5 (Level 5: the growth inhibition rate is greater than 85%) | 0 (Level 0: the growth inhibition rate is less than 5%) | 0 (Level 0: the growth inhibition rate is less than 5%) | 5 (Level 5: the growth inhibition rate is greater than 85%) | 0 (Level 0: the growth inhibition rate is less than 5%) | 5 (Level 5: the growth inhibition rate is greater than 85%)
4 | CC(Oc1nc(F)c(Br)c(N)c1Br)C(=O)SCc1ccccc1 (centres unmarked) [Compound 12] | 5 (Level 5: the growth inhibition rate is greater than 85%) | 5 (Level 5: the growth inhibition rate is greater than 85%) | 5 (Level 5: the growth inhibition rate is greater than 85%) | 5 (Level 5: the growth inhibition rate is greater than 85%) | 5 (Level 5: the growth inhibition rate is greater than 85%) | 5 (Level 5: the growth inhibition rate is greater than 85%) | 0 (Level 0: the growth inhibition rate is less than 5%) | 0 (Level 0: the growth inhibition rate is less than 5%) | 5 (Level 5: the growth inhibition rate is greater than 85%) | 0 (Level 0: the growth inhibition rate is less than 5%) | 5 (Level 5: the growth inhibition rate is greater than 85%)
5 | CC(Oc1nc(F)c(Cl)c(N)c1Cl)C(=O)SCc1ccccc1 (centres unmarked) [Compound 67] | 5 (Level 5: the growth inhibition rate is greater than 85%) | 5 (Level 5: the growth inhibition rate is greater than 85%) | 5 (Level 5: the growth inhibition rate is greater than 85%) | 5 (Level 5: the growth inhibition rate is greater than 85%) | 5 (Level 5: the growth inhibition rate is greater than 85%) | 5 (Level 5: the growth inhibition rate is greater than 85%) | 0 (Level 0: the growth inhibition rate is less than 5%) | 0 (Level 0: the growth inhibition rate is less than 5%) | 5 (Level 5: the growth inhibition rate is greater than 85%) | 0 (Level 0: the growth inhibition rate is less than 5%) | 5 (Level 5: the growth inhibition rate is greater than 85%)
6 | CC(Oc1nc(F)c(Cl)c(N)c1Cl)C(=O)SCc1cc(C2CC2)nn1C (centres unmarked) [Compound 128] | 5 (Level 5: the growth inhibition rate is greater than 85%) | 5 (Level 5: the growth inhibition rate is greater than 85%) | 5 (Level 5: the growth inhibition rate is greater than 85%) | 5 (Level 5: the growth inhibition rate is greater than 85%) | 5 (Level 5: the growth inhibition rate is greater than 85%) | 5 (Level 5: the growth inhibition rate is greater than 85%) | 0 (Level 0: the growth inhibition rate is less than 5%) | 0 (Level 0: the growth inhibition rate is less than 5%) | 5 (Level 5: the growth inhibition rate is greater than 85%) | 0 (Level 0: the growth inhibition rate is less than 5%) | 5 (Level 5: the growth inhibition rate is greater than 85%)
7 | CC(Oc1nc(F)c(Cl)c(N)c1Cl)C(=O)OCCc1ccoc1 (centres unmarked) [Compound 140] | 5 (Level 5: the growth inhibition rate is greater than 85%) | 5 (Level 5: the growth inhibition rate is greater than 85%) | 5 (Level 5: the growth inhibition rate is greater than 85%) | 5 (Level 5: the growth inhibition rate is greater than 85%) | 5 (Level 5: the growth inhibition rate is greater than 85%) | 5 (Level 5: the growth inhibition rate is greater than 85%) | 0 (Level 0: the growth inhibition rate is less than 5%) | 0 (Level 0: the growth inhibition rate is less than 5%) | 5 (Level 5: the growth inhibition rate is greater than 85%) | 0 (Level 0: the growth inhibition rate is less than 5%) | 5 (Level 5: the growth inhibition rate is greater than 85%)
